In assay [1] the test system is intra-macrophage PA (XDR). Nature of the assay: 24 h intracellular infection model: intra-macrophage PA (XDR) in RAW 264.7 cells. It counts as cell-based, Pseudomonas aeruginosa. As to conditions: MOI 10, 3 μg/mL ciprofloxacin equivalent. The text has this: FIGS. 5A-5C. […] Data shown reflect mean±SD of three replicates.
However, a critical gap exists in our general understanding of how macrophages respond physiologically to the thiol antioxidant inhibition strategy. Here, we will examine how the thiol antioxidant inhibition strategy (i.e., increased ROS levels) contributes to macrophages killing and intracellular persister cell death.

The subject of assay [2] is extensively drug-resistant (XDR) PA. Nature of the assay: Growth inhibition (MIC) of extensively drug-resistant PA. In kind it is cell-based, Pseudomonas aeruginosa. As to conditions: for AuNC, concentration of ciprofloxacin within the AuNC. The text has this:
FIGS. 2A-2F. […] PA01 is sensitized (FIGS. 2A-2B). […]. […] Data shown reflect mean±SD of three replicates.
H2O2 contributes causatively to antibiotics lethality (48). H2O2 is generated as a downstream physiological consequence of antibiotics interacting with their traditional targets. […] Thus, the main challenge to reach lethal H2O2 levels in resistant bacteria is to design molecules that inhibit the antioxidant defense mechanisms. […].

Assay [3] relates to ciprofloxacin-induced persister cells from PA (XDR). Description: Eradication of ciprofloxacin-induced persister cells from PA (XDR). In kind it is cell-based, Pseudomonas aeruginosa. As to conditions: 3 μg/mL ciprofloxacin equivalent, 24 h in PBS; persisters generated with 600 μg/mL ciprofloxacin. The protocol: FIGS. 3A-3E. […] Data shown reflect mean±SD of three replicates.
After removing the drugs, the surviving bacteria were enumerated. […] The steady-state level of H2O2 inside the unstressed aerobic bacterial cell has been projected to be about 50 nM (47). […] The H2O2 level was quantified by measuring the area under the curve (AUC) (FIGS. 3B, 3C).

Assay [4] deals with TNF-α. Nature of the assay: TNF-α secretion by RAW 264.7 cells. As to conditions: 2 μg/mL of ciprofloxacin. In kind it is cell-based, murine.

“Also recorded” adds a separate entry of the source.

Turning to `O=C(O)c1cn(C2CC2)c2cc(N3CCNCC3)c(F)cc2c1=O` [ciprofloxacin], the “residual intra-macrophage bacteria (CFU), in words” value in assay [1] is on record as “fails; also recorded: no significant difference”. In addition, in assay [2], the “ciprofloxacin concentration that inhibits growth of PA (XDR)” value is greater than 127.6 µg/mL. Further, the “eradication of persister cells (in words)” value in assay [3] is recorded as “fails; also recorded: survival persisters”. In addition, the “average TNF levels” value in assay [4] worked out at 53.75 ± 2 pg/mL.

The values above are taken from patent US11998615B2, “Functionalized nanoparticles and their use in treating bacterial infections” (The Board of Trustees of the Leland Stanford Junior …, priority 2021, dated 2024).
